Data published in patent US20180057505A1, “BICYCLIC HETEROARYL COMPOUNDS USEFUL AS INHIBITORS OF THE PAR-2 SIGNALING PATHWAY” (VERTEX PHARMACEUTICALS INCORPORATED, priority 2015, published 2018).

Key:
Format in all cases: cell-based
[1] = target: T1, PAR2 (HT-29 cells) (Homo sapiens, UniProt P55085); assay: Ca FLIPR TETRA assay, ANTAGONIST mode, activator 3.1 U/mL trypsin; settings: HT-29 cells; activator 3.1 U/mL trypsin; Method A: maximal concentration of antagonist 0.1, 1 or 2 μM
T1 construct: host or cells: HT-29
T1 sequence (P55085 26-397): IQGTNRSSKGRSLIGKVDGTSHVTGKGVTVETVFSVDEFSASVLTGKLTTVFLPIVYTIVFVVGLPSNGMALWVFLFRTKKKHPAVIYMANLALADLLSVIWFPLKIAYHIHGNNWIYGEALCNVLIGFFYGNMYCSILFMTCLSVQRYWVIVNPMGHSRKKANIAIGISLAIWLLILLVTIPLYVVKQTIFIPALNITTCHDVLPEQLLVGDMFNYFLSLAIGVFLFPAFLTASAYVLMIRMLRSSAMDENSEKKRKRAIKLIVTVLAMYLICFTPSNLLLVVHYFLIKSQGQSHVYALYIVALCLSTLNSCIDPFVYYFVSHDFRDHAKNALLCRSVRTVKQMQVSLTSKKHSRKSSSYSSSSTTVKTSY
Outline: (§1)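 HT-29 cells plated overnight at 37 °C in 1% FBS/McCoy's, loaded with calcium 5 dye (45 min 37 °C, 15 min r.t.), then preincubated with compounds 30 min at r.t. before a fixed activator challenge. Intracellular Ca2+ read by FLIPR Tetra; a first read checks compound-alone activation.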

[2] = test system: UTP-stimulated Ca2+ response in HT-29 cells; assay: Ca FLIPR TETRA assay, ANTAGONIST mode, activator 0.6 μM UTP; settings: HT-29 cells, activator 0.6 μM UTP
Outline: as §1

[3] = target: T1, PAR2 (HT-29 cells); assay: Ca FLIPR TETRA assay, ANTAGONIST mode, activator 8 μM SLIGKV; settings: HT-29 cells; activator 8 μM SLIGKV; Method A: maximal concentration of antagonist 0.1, 1 or 2 μM
Outline: as §1

[4] = test system: Thrombin-stimulated Ca2+ response in HT-29 cells; assay: Ca FLIPR TETRA assay, ANTAGONIST mode, activator 1 U/mL Thrombin; settings: HT-29 cells, activator 1 U/mL Thrombin
Outline: as §1

| SMILES | IC50 [1] [µM] | IC50 ([2]; Homo sapiens) [µM] | IC50 [3] [µM] | IC50 ([4]; Homo sapiens) [µM] | IC50 [2] [µM] | IC50 [4] [µM] |
| --- | --- | --- | --- | --- | --- | --- |
| CC(C)(C)c1cc(-c2ccc(Cl)cc2)nc2cc(C(=O)N3CCN(c4ncc(C(=O)O)cn4)C(=O)C3(C)C)oc12 [Example I-369] | 0.019 | > 2 | 0.012 | > 2 | – | – |
| CC(C)(C)c1cc(-c2ccc(Cl)cc2)nc2cc(C(=O)N3CCN(c4ncc(F)cn4)CC3(C)C)oc12 [Example I-370] | 0.017 | > 2 | 0.017 | > 2 | – | – |
| Cc1cnc(N2CCN(C(=O)c3cc4nc(-c5ccc(Cl)c(F)c5)cc(C(C)(C)C)c4o3)C(C)(C)C2=O)nc1 [Example I-371] | 0.0052 | – | 0.0052 | – | > 2 | > 2 |
| CC(C)(C)c1cc(-c2ccc(Cl)c(F)c2)nc2cc(C(=O)N3CCN(C(=O)CC4(C(=O)O)CCC4)CC3(C)C)oc12 [Example I-372] | 0.0003 | > 2 | 0.0002 | > 2 | – | – |
| CC(C)[C@@H](CC(=O)O)C(=O)N1CCN(C(=O)c2cc3nc(-c4ccc(Cl)c(F)c4)cc(C(C)(C)C)c3o2)C(C)(C)C1 [Example I-373] | 0.0008 | > 1.1 | 0.0006 | > 1.1 | – | – |
| CC(C)[C@H](CC(=O)O)C(=O)N1CCN(C(=O)c2cc3nc(-c4ccc(Cl)c(F)c4)cc(C(C)(C)C)c3o2)C(C)(C)C1 [Example I-374] | 0.0041 | > 2 | 0.0036 | > 2 | – | – |
| CC(C)(C)c1cc(-c2ccc(Cl)c(F)c2)nc2cc(C(=O)N3CCN(C(=O)[C@@H]4CCC[C@H](C(=O)O)C4)CC3(C)C)oc12 [Example I-375] | 0.0007 | > 2 | 0.0003 | > 2 | – | – |
| CC(C)(C)c1cc(-c2ccc(Cl)c(F)c2)nc2cc(C(=O)N3CCN(C(=O)CCP(C)(=O)O)CC3(C)C)oc12 [Example I-376] | 0.29 | > 2 | 0.28 | > 2 | – | – |
| CC1(C)CCC(c2cc(C(C)(C)C)c3oc(C(=O)N4CCN(C(=O)CC[C@H](N)C(=O)O)CC4(C)C)cc3n2)CC1 [Example I-377] | 0.47 | > 2 | 0.4 | > 2 | – | – |
| CC1(C)CCC(c2cc(C(C)(C)C)c3oc(C(=O)N4CCN(C(=O)CCCC(=O)O)CC4(C)C)cc3n2)CC1 [Example I-378] | 0.0035 | > 2 | 0.0017 | > 2 | – | – |
| CC1(C)CCC(c2cc(C(C)(C)C)c3oc(C(=O)N4CCN(C(=O)c5ccc(C(=O)O)cn5)CC4(C)C)cc3n2)CC1 [Example I-379] | 0.056 | > 2 | 0.026 | > 2 | – | – |
| CC1(C)CCC(c2cc(C(C)(C)C)c3oc(C(=O)N4CCN(C(=O)c5ccc(C(=O)O)nc5)CC4(C)C)cc3n2)CC1 [Example I-380] | 0.24 | > 2 | 0.21 | > 2 | – | – |
| CC(C)(C)c1cc(-c2ccc(Cl)c(F)c2)nc2cc(C(=O)N3CCN(c4ccc(F)c(C(=O)O)n4)CC3(C)C)oc12 [Example I-381] | 0.0027 | > 2 | 0.0009 | > 2 | – | – |
| Cc1coc(N2CCN(C(=O)c3cc4nc(C5CCC(C)(C)CC5)cc(C(C)(C)C)c4o3)C(C)(C)C2)n1 [Example I-382] | 0.1 | > 2 | 0.12 | > 2 | – | – |
| Cc1cccc(C2CCN(C(=O)c3cc4nc(-c5ccc(Cl)cc5)cc(C(C)(C)C)c4o3)C(C)(C)C2)n1 (stereo not drawn) [Example I-383] | 0.012 | – | 0.019 | – | > 2 | > 2 |
| Cc1nc(C(=O)O)cnc1C1CCN(C(=O)c2cc3nc(C4CCC(C)(C)CC4)cc(C(C)(C)C)c3o2)C(C)(C)C1 (stereo not drawn) [Example I-384] | 0.0022 | – | 0.0025 | – | > 2 | > 2 |
| Cc1nc(C)c(N2CCN(C(=O)c3cc4nc(-c5ccc(Cl)cc5)cc(C(C)(C)C)c4o3)C(C)(C)C2=O)o1 [Example I-386] | 0.04 | > 2 | 0.05 | > 2 | – | – |
| Cc1cncc(N2CCN(C(=O)c3cc4nc(-c5ccc(Cl)cc5)cc(C(C)(C)C)c4o3)C(C)(C)C2)n1 [Example I-387] | 0.01 | > 2 | 0.012 | > 2 | – | – |
| Cc1cnc(N2CCN(C(=O)c3cc4nc(-c5ccc(Cl)cc5)cc(C(C)(C)C)c4o3)C(C)(C)C2)nc1 [Example I-388] | 0.0285 | > 2 | 0.036 | > 2 | – | – |
| Cc1nccc(N2CCN(C(=O)c3cc4nc(-c5ccc(Cl)cc5)cc(C(C)(C)C)c4o3)C(C)(C)C2)n1 [Example I-389] | 0.023 | > 2 | 0.022 | > 2 | – | – |
| Cc1cc(N2CCN(C(=O)c3cc4nc(-c5ccc(Cl)cc5)cc(C(C)(C)C)c4o3)C(C)(C)C2)ncn1 [Example I-390] | 0.0125 | > 2 | 0.019 | > 2 | – | – |
| CC1(C)CCC(c2cc(C(C)(C)C)c3oc(C(=O)N4CCN(c5ncc(C(=O)O)cc5F)CC4(C)C)cc3n2)CC1 [Example I-391] | 0.0004 | 1.01 | 0.0004 | > 1.01 | – | – |
| Cc1nc(C(=O)O)cnc1N1CCN(C(=O)c2cc3nc(-c4ccc(Cl)cc4)cc(C(C)(C)C)c3o2)C(C)(C)C1 [Example I-392] | 0.0028 | > 2 | 0.0038 | > 2 | – | – |
| CC(C)(C)c1cc(-c2ccc(Cl)cc2)nc2cc(C(=O)N3CCN(c4ncc(C(=O)O)cc4F)CC3(C)C)oc12 [Example I-393] | 0.0003 | 0.86 | 0.0004 | > 1.01 | – | – |
| Cc1cccnc1N1CCN(C(=O)c2cc3nc(-c4ccc(Cl)cc4)cc(C(C)(C)C)c3o2)C(C)(C)C1 [Example I-394] | 0.055 | > 2 | 0.058 | > 2 | – | – |
| Cc1ccc(N2CCN(C(=O)c3cc4nc(-c5ccc(Cl)cc5)cc(C(C)(C)C)c4o3)C(C)(C)C2)nc1 [Example I-395] | 0.0405 | > 2 | 0.056 | > 2 | – | – |
| CC(C)(C)c1cc(-c2ccc(Cl)c(F)c2)nc2cc(C(=O)N3CCN(c4ncc(C(=O)O)cc4F)CC3(C)C)oc12 [Example I-396] | 0.0003 | 1.06 | 0.0003 | 1.01 | – | – |
| Cc1ccc(C(=O)O)nc1C1CCN(C(=O)c2cc3nc(-c4ccc(Cl)cc4)cc(C(C)(C)C)c3o2)C(C)(C)C1 (stereo not drawn) [Example I-397] | 0.0006 | – | 0.0006 | – | 0.76 | > 1.01 |
| Cc1cc(N2CCN(C(=O)c3cc4nc(C5CCC(C)(C)CC5)cc(C(C)(C)C)c4o3)C(C)(C)C2)ncc1C(=O)O [Example I-398] | 0.0005 | 1.01 | 0.0004 | > 1.01 | – | – |
| Cc1cc(N2CCN(C(=O)c3cc4nc(-c5ccc(Cl)cc5)cc(C(C)(C)C)c4o3)C(C)(C)C2)ncc1C(=O)O [Example I-399] | 0.0006 | 0.86 | 0.0004 | > 1.01 | – | – |
